According to patent publication US20150125452A1, “COMBINATION TREATMENTS COMPRISING C-MET ANTAGONISTS AND B-RAF ANTAGONISTS” (GENENTECH, INC., priority 2011, published 2015):
Entries after “also recorded” stand apart in the source; their conditions may differ.

Tests used:
Type in all cases: cell-based, Human
[1] = test system: HER2-amplified breast cancer cell lines; assay: Syto 60 cell viability, ligand rescue from lapatinib; settings: 50 ng/mL ligand, 72 h
Procedure: (§1) Cell viability was assessed using the nucleic acid stain Syto 60 (Invitrogen). Cells (3000-5000 per well) were seeded into 96 well plates and allowed to adhere overnight. The next day, cells were treated with (or without) 50 ng/mL RTK ligand and concomitantly exposed to an increasing concentration range of the relevant kinase inhibitor. Following 72 hours drug exposure, cells were fixed in 4% formaldehyde, stained with Syto 60 and cell number was assessed using an Odyssey scanner (Li-Cor). Cell viability was calculated by dividing the fluorescence obtained from the drug-treated cells by the fluorescence obtained from the control (no drug) treated cells.
The ability of HGF to rescue 3 of 9 tested HER2-amplified breast cancer cell lines from growth inhibition by the HER2 kinase inhibitor lapatinib was also unexpected (FIG. 3A). These 3 cell lines all express MET, and expression was well correlated with the ability of HGF to attenuate lapatinib response (FIG. 3B).

[2] = test system: BRAF mutant melanoma cell lines; assay: Syto 60 cell viability, HGF rescue from PLX[…]; settings: additional twelve cell lines
Procedure: Cells were treated twice weekly for the indicated times. […] Error bars represent mean+/−s.e.m.
(§2) Cell viability was assessed using the nucleic acid stain Syto 60 (Invitrogen). Cells (3000-5000 per well) were seeded into 96 well plates and allowed to adhere overnight. The next day, cells were treated with (or without) 50 ng/mL RTK ligand and concomitantly exposed to an increasing concentration range of the relevant kinase inhibitor. […] Cell viability was calculated by dividing the fluorescence obtained from the drug-treated cells by the fluorescence obtained from the control (no drug) treated cells.

[3] = test system: H3122 EML4-ALK translocated NSCLC cancer cell line; assay: Cell viability assay with TAE684 or crizotinib and HGF; settings: TAE684, 50 ng/mL HGF, 72 h
Procedure: Error bars represent mean+/−s.e.m.
as §2

[4] = test system: H2228 EML4-ALK translocated NSCLC cells; assay: Syto 60 viability and long-term staining with TAE684 and HGF
Procedure: (§3) Cells were co-treated with 50 ng/mL HGF. Error bars represent mean+/−s.e.m. […] FIG. 8C, Syto 60 staining of H2228 EML4-ALK translocated NSCLC cells treated with TAE684 (2 μM) in the presence and absence of HGF (50 ng/mL) as indicated. Cells were treated every 3 days for 9 days. FIG. 8D, Syto 60 staining of H358 EGF-like ligand-driven NSCLC cells treated with Erlotinib (5 μM) in the presence and absence of HGF (50 ng/mL) as indicated. Cells were treated every 3 days for 9 days.
FIG. 16: Syto 60 staining of H2228 EML4-ALK translocated NSCLC cells treated with TAE684 (2 μM) in the presence or absence of HGF (50 ng/mL) as indicated. Cells were treated every 3 days for 9 days.
as §1

[5] = test system: H358 EGF-like ligand-driven NSCLC cells; assay: Syto 60 long-term staining with erlotinib and HGF; settings: erlotinib 5 μM, HGF 50 ng/mL, every 3 days for 9 days
Procedure: as §3

## HGF: recombinant human RTK ligand (MET ligand) purchased from Peprotech
[1]
  number of HER2-amplified breast cancer cell lines rescued from lapatinib: 3 of 9
[2]
  number of additional BRAF mutant melanoma lines with HGF-attenuated PLX[…] sensitivity: 5 of the 12
[3]
  rescue from ALK inhibition by HGF: efficiently rescued from ALK inhibition
[4]; TAE684 2 μM, HGF 50 ng/mL, every 3 days for 9 days
  effect of HGF on longer-term TAE684 treatment: rescued; also recorded: prevented acquired resistance to TAE684
[4]; TAE684, HGF, 72 h
  rescue from ALK inhibition by HGF at 72 hour time-point: not rescued from ALK inhibition
[5]
  effect of HGF on longer-term erlotinib treatment: rescued
